Assay results published in patent publication US8178530B2, “Imidazolopyrazine compounds useful for the treatment of degenerative and inflammatory diseases” (Janssen Pharmaceutica NV, priority 2006, dated 2012).

Experiments:
[1] = target: T1, MAPKAPK5 (Homo sapiens, UniProt Q8IW41); test: MAPKAP-K5 assay (FlashPlate, 33P-ATP); format: biochemical; conditions: 0.6 μM ATP, 30 minutes at room temperature
T1 construct: 1 mU MAPKAP-K5
T1 sequence (Q8IW41 1-473): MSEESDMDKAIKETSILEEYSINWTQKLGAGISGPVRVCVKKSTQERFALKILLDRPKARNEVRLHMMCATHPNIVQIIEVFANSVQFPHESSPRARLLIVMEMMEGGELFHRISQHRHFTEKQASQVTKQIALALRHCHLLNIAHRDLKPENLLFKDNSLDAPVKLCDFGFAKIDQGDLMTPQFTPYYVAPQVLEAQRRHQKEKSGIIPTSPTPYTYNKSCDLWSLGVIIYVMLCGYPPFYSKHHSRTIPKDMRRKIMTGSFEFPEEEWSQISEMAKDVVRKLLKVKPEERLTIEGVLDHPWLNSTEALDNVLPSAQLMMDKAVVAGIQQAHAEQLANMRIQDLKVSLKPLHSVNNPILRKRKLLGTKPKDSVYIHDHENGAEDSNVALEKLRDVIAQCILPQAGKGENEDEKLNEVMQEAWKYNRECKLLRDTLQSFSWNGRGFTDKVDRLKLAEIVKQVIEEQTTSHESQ
Procedure: 3 μM MAPKAP-K5 peptide substrate

[2] = tested on: MMP1 expression by SFs; test: 'MMP assay': MMP1 expression by 'complex trigger' activated synovial fibroblasts (MMP1 ELISA); format: cell-based, human; conditions: Homo sapiens, Fibroblast, RASFs, 48 hrs
Procedure: A 384-well format ELISA for measurement of MMP1 is developed. Various primary antibodies are tested, as well as various ELISA protocols. The following protocol is developed and validated to measure MMP1 levels in SF supernatant in 384 well plates: white Lumitrac 600 384 well plates (Greiner) are coated with 2 μg/mL anti-MMP1 antibody MAB1346 (Chemicon). The antibody is diluted in buffer 40 (1.21 g Tris base (Sigma), 0.58 g NaCl (Calbiochem) and 5 ml 10% NaN3 (Sigma) in 1 L milliQ water and adjusted to pH 8.5). After overnight incubation at 4° C., plates are washed with PBS (80 g NaCl, 2 g KCl (Sigma), 11.5 g Na2HPO4.7H2O and 2 g KH2PO4 in 10 L milliQ; pH 7.4) and blocked with 100 μL/well Casein buffer (2% Casein (VWR International) in PBS). Next day, casein buffer is removed from ELISA plates and replaced by 50 μL/well EC buffer (4 g casein, 2.13 g Na2HPO4 (Sigma), 2 g bovine albumin (Sigma), 0.69 g NaH2PO4.H2O (Sigma), 0.5 g CHAPS (Roche), 23.3 g NaCl, 4 mL 0.5 M EDTA pH 8 (Invitrogen), 5 mL 10% NaN3 in 1 L milliQ and adjusted to pH 7.0). 0.25 mM DTT (Sigma) is added to the thawed samples plates. After removal of the EC buffer, 20 μL of sample is transferred to the ELISA plates. After overnight incubation at 4° C. plates are washed twice with PBS and once with PBST (PBS with 0.05% Tween-20 (Sigma)) and incubated with 35 μL/well biotinylated anti-MMP1 antibody solution (R&D). This secondary antibody is diluted in buffer C (0.82 g NaH2PO4.H2O, 4.82 g Na2HPO4, 46.6 g NaCl, 20 g bovine albumin and 4 mL 0.5M EDTA pH 8 in 2 L milliQ and adjusted to pH 7.0) at a concentration of 5 μg/mL. After 2 h of incubation at RT, plates are washed as described above and incubated with 50 μL/well streptavidin-HRP conjugate (Biosource). Streptavidin-HRP conjugate is diluted in buffer C at a concentration of 0.25 μg/mL. After 45 min, plates are washed as described above and incubated for 5 min with 50 μL/well BM Chem ELISA Substrate (Roche). Readout is performed on the Luminoscan Ascent Luminometer (Labsystems) with an integration time of 200 msec or with an Envision reader (Perkin Elmer).
The increase of MMP1 expression by SFs upon treatment with cytokines relevant in the field of RA (TNF-α, IL1β and OSM) or a combination thereof is shown in FIG. 2 as white bars. For this experiment, SFs are seeded in 96 well plates, 3,000 cells/well. 24 h later, the medium is changed to M199 medium supplemented with 1% FBS. One day after the medium change, cytokines or combinations thereof are added to the cultures, each cytokine being added to a final concentration of 25 ng/mL. 72 h after cytokine addition, the supernatant is collected and processed in the MMP1 ELISA as described in the protocol given above. In parallel with this experiment, SFs are triggered, using the same protocol, with the supernatant of THP1 cells (2-fold diluted in M199+1% FBS) treated with the same cytokines or combinations of cytokines for 48 h in M199 medium+1% FBS. The induction of the MMP1 expression by SFs triggered with the supernatants of TNF-α-treated THP1 cells is stronger (>4.5 fold induction) as compared to the SFs triggered with recombinant TNF-α alone (3-fold induction) and almost equals the 5-fold induction obtained by a mixture of 3 purified cytokines (TNF-α, IL1βb, OSM). […] As the role of TNF-α in the RA pathogenesis is validated (TNF-α-blockers such as Infliximab and Etanercept show some efficacy in the treatment of RA patients) and the THP-1 cells are representative for monocytes/macrophages present in the joint of RA patients, the TNF-α-based trigger mixture prepared by contacting THP-1 cells with TNF-α will contain factors present in the joints of RA patients and subsequently is relevant to RA. This TNF-α-based complex trigger, further referred to as the ‘complex trigger’, will further be used as basis for the ‘MMP assay’.
Dexamethasone is shown to dose-dependently reduce amounts of MMP1 produced by complex trigger activated SFs. […]

| IC50 [1] [µM] | Structure (SMILES) | EC50 [2] [µM] |
| --- | --- | --- |
| > 1 | NC(=O)c1ccc(-c2cnc(Nc3ccc(C(=O)NCc4cccnc4)cc3)c3nccn23)cc1 [Compound 104] | > 1 |
| 0.501 to 1 | O=C(NCc1cccnc1)c1ccc(Nc2ncc(-c3cc[nH]c(=O)c3)n3ccnc23)cc1 [Compound 108, 4-[5-(2-Oxo-1,2-dihydropyridin-4-yl)imidazo[1,2-a]pyrazin-8-ylamino]-N-pyridin-3-ylmethyl benzamide] | 0.101 to 0.5 |
| > 1 | CN1CCN(c2ccc(Nc3ncc(-c4ccc(=O)[nH]c4)n4ccnc34)cc2)CC1 [Compound 109] | > 1 |
| > 1 | CN1CCN(c2ccc(Nc3ncc(-c4cncc(C(N)=O)c4)n4ccnc34)cc2)CC1 [Compound 121, 5-{8-[4-(4-Methyl-piperazin-1-yl)-phenylamino]-imidazo[1,2-a]pyrazin-5-yl}-nicotinamide] | > 1 |
| > 1 | CN1CCN(c2ccc(Nc3ncc(-c4ccc(C(N)=O)c(N(C)C)c4)n4ccnc34)cc2)CC1 [Compound 126, 2-Dimethylamino-4-{8-[4-(4-methyl-piperazin-1-yl)-phenylamino]-imidazo[1,2-a]pyrazin-5-yl}-benzamide] | > 1 |
| > 1 | CN1CCN(c2ccc(Nc3ncc(-c4ccnc(N)c4)n4ccnc34)cc2)CC1 [Compound 132, [5-(2-Amino-pyridin-4-yl)-imidazo[1,2-a]pyrazin-8-yl]-[4-(4-methyl-piperazin-1-yl)-phenyl]-amine] | > 1 |
| > 1 | NC(=O)c1ccc(-c2cnc(Nc3ccc(-n4ccc(C(F)(F)F)n4)cc3)c3nccn23)cc1 [Compound 133] | 0.101 to 0.5 |
| > 1 | NC(=O)c1ccc(-c2cnc(Nc3ccc(-n4cncn4)cc3)c3nccn23)cc1 [Compound 134] | 0.101 to 0.5 |
| > 1 | NC(=O)c1ccc(-c2cnc(Nc3ccc(OCc4cccnc4)cc3)c3nccn23)cc1F [Compound 147] | 0.101 to 0.5 |
| > 1 | CC(C)Oc1ccc(Nc2ncc(-c3ccc(C(N)=O)c(F)c3)n3ccnc23)cc1 [Compound 148] | 0.501 to 1 |
| > 1 | Cn1nnc(-c2ccc(Nc3ncc(-c4ccc(C(N)=O)cc4)n4ccnc34)cc2)n1 [Compound 170] | 0.101 to 0.5 |
| > 1 | NC(=O)c1ccc(-c2cnc(Nc3cccc(N4CCOCC4)c3)c3nccn23)cc1 [Compound 172] | > 1 |

The next lines start with the molecule.

| Structure (SMILES) | IC50 [1] [µM] | EC50 [2] [µM] |
| --- | --- | --- |
| CCN(CC)CCNC(=O)c1ccc(Nc2ncc(-c3nc[nH]n3)n3ccnc23)cc1 [Compound 105] | > 1 | > 1 |
| CCN(CC)CCNC(=O)c1ccc(Nc2ncc(-c3n[nH]c(C)n3)n3ccnc23)cc1 [Compound 106] | > 1 | > 1 |
| CCOc1cc(-c2cnc(Nc3ccc(N4CCOCC4)cc3)c3nccn23)ccn1 [Compound 107] | > 1 | > 1 |
| CN(C)c1cc(-c2cnc(Nc3ccc(N4CCOCC4)cc3)c3nccn23)ccn1 [Compound 111, [5-(2-Dimethylamino-pyridin-4-yl)-imidazo[1,2-a]pyrazin-8-yl]-(4-morpholin-4-yl-phenyl)-amine] | > 1 | > 1 |
| O=C(NCc1ccc(O)cc1)c1ccc(Nc2ncc(-c3cc[nH]c(=O)c3)n3ccnc23)cc1 [Compound 112] | 0.101 to 0.5 | 0.101 to 0.5 |
| CN1CCN(c2ccc(Nc3ncc(-c4ccc(C(=O)N5CCCC5)cc4)n4ccnc34)cc2)CC1 [Compound 115] | > 1 | > 1 |
| CN1CCN(c2ccc(Nc3ncc(-c4ccc(C(=O)NC5CC5)cc4)n4ccnc34)cc2)CC1 [Compound 117] | > 1 | > 1 |
| Cc1cnc2c(Nc3ccc(N4CCOCC4)cc3)ncc(-c3ccc(C(N)=O)cc3)n12 [Compound 130, 4-[3-Methyl-8-(4-morpholin-4-ylphenylamino)imidazo[1,2-a]pyrazin-5-yl]benzamide] | > 1 | > 1 |
| Cc1cnc2c(Nc3ccc(N4CCOCC4)cc3)ncc(-c3cn[nH]c3)n12 [Compound 131, [3-Methyl-5-(1H-pyrazol-4-yl)imidazo[1,2-a]pyrazin-8-yl]-(4-morpholin-4-yl-phenyl)amine] | > 1 | > 1 |
| Cc1cnc2c(Nc3ccc(N4CCOCC4)cc3)ncc(-c3cc[nH]c(=O)c3)n12 [Compound 135] | > 1 | > 1 |
| NC(=O)c1ccc(-c2cnc(Nc3ccc(-n4cc(-c5ccccn5)nn4)cc3)c3nccn23)cc1 [Compound 154, 4-{8-[4-(4-Pyridin-2-yl-[1,2,3]triazol-1-yl)-phenylamino]-imidazo[1,2-a]pyrazin-5-yl}-benzamide] | > 1 | 0.001 to 0.1 |
| CN1CCN(c2ccc(Nc3ncc(-c4cn[nH]c4C(F)(F)F)n4ccnc34)cc2)CC1 [Compound 157, [4-(4-Methyl-piperazin-1-yl)-phenyl]-[5-(3-trifluoromethyl-1H-pyrazol-4-yl)-imidazo[1,2-a]pyrazin-8-yl]-amine] | > 1 | > 1 |
| O=c1cc(-c2cnc(Nc3ccc(N4CCOCC4)cc3)c3nccn23)cc(C(F)(F)F)[nH]1 [Compound 161, 6-Trifluoromethyl-4-[8-(4-morpholin-4-ylphenylamino)imidazo[1,2-a]pyrazin-5-yl]-1H-pyridin-2-one] | > 1 | > 1 |
| CCc1cnc2c(Nc3ccc(N4CCOCC4)cc3)ncc(-c3ccc(C(N)=O)cc3)n12 [Compound 162, 4-[3-Ethyl-8-(4-morpholin-4-ylphenylamino)-imidazo[1,2-a]pyrazin-5-yl]benzamide] | > 1 | 0.501 to 1 |
| NC(=O)c1nc(-c2cnc(Nc3ccc(N4CCOCC4)cc3)c3nccn23)cs1 [Compound 164] | > 1 | > 1 |
| Cc1cc(-c2cnc(Nc3ccc(N4CCOCC4)cc3)c3nccn23)cc(=O)[nH]1 [Compound 174, 6-Methyl-4-[8-(4-morpholin-4-ylphenylamino)-imidazo[1,2-a]pyrazin-5-yl]-1H-pyridin-2-one] | > 1 | 0.101 to 0.5 |
| NC(=O)c1cc(Nc2ncc(-c3cc(F)c(C(N)=O)c(F)c3)n3ccnc23)ccc1N1CCOCC1 [Compound 175, 4-[8-(3-Carbamoyl-4-morpholin-4-yl-phenylamino)-imidazo[1,2-a]pyrazin-5-yl]-2,6-difluoro-benzamide] | 0.101 to 0.5 | 0.501 to 1 |
